Molecules are shown by their SMILES.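 A five-concentration, 48-hour dose response in 96-well plates underlies each endpoint, interpolated linearly between surrounding concentrations. GI50 marks 50% less growth. TGI is the concentration that stops growth completely.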

In PubChem BioAssay (NCI) one finds GI50 and TGI data, which are given here for 26 compounds.

The first assay concerns K-562 leukemia. Nature of the assay: NCI tumour cell line growth inhibition, 48 h.
As for `COc1ccc2[nH]c(O)c(/C=c3/cc4c(c(-c5cc(OC)c(OC)c(OC)c5)n3)=Nc3ccccc3-4)c2c1`, the GI50 is 4.14 µM and the TGI was over 100 µM.
In the case of `NCC1CCN(c2nc3ccccc3c3c2CCCC3)CC1`, the TGI worked out at 8.07 µM.
Still for that read-out and setting: the figure for `CCN(CC)CCc1c2c(nc3ccccc13)C(=O)c1cccnc1C2=O` is 4.23 µM; for `Nc1cc(CO)cc(Nc2nc3ccc(Cl)cc3c3[nH]c4ccccc4c23)c1` it is 27.3 µM.
On the same count and under the same terms, to `Cc1c(F)c(N)c2c(=O)cc(-c3ccc(NC(=O)CN(C)C)c(F)c3)oc2c1F` belongs 98.9 µM.
`COc1ccccc1Nc1nc(N)nc(N)c1N=O`: the TGI is over 100 µM.
The compound `COc1cccc2c(N)c3cccc(C(=O)NCCN(C)C)c3nc12` gave a TGI of 0.383 µM.
The same measure, in the same setting: to `CCN1CC2=C(NC(=S)NC2c2ccc(Cl)cc2)/C(=C/c2ccc(Cl)cc2)C1` (stereo unspecified) belongs over 100 µM.
The same measure, in the same setting: to `OCC1CCCCCCCCCCC12SCCCS2` (stereo unspecified) belongs over 100 µM.
The same measure, in the same setting: the figure for `C=C(C)C12CC(COC(=O)c3ccccc3)C34OC5(OC1C3C1OC1(CO)C(O)C1(O)C(OC(=O)c3ccccc3)C(C)C(C(C)CCCCCCC5O)C14)O2` (stereo unspecified) is over 100 µM.
`CC(C)=CCOC(=O)C(C)=[N+]=[N-]` displayed a TGI of over 100 µM.
Same read-out and setting: the figure for `Cc1c(-c2nc3ccccc3[nH]2)c(=O)n(-c2ccccc2)n1C` is over 100 µM.

A further assay relates to NCI-H522 lung. Nature of the assay: NCI tumour cell line growth inhibition, 48 h.
`COc1ccc(C2CC(c3c(O)ccc4ccccc34)=NN2c2ccc([N+](=O)[O-])cc2[N+](=O)[O-])cc1OC` (stereo unspecified) returned a TGI of over 42.9 µM.
Still for that read-out and setting: the figure for `S=C(N/N=C\C=N/NC(=S)N1CCCCC1)N1CCCCC1` is over 100 µM.
`CN1C(=O)C2C(=O)N(Cc3ccccc3)CC(=O)N2c2cccnc21` (stereo unspecified) returned a TGI of over 100 µM.
Compound `C=C1CC(COc2cc(=O)oc3ccccc23)(c2ccccc2)OC1=O` (stereo unspecified) gave a TGI of 3.88 µM.
As for `CN(C)CCCOc1nc2c(c(=O)n(C)c(=O)n2C)n1C` (tested in a mixture with another compound), the TGI is over 100 µM.
In turn, `C[N+]1=C2[B-](C(C)(C)C)=[N+](C(C)(C)C)[B-]2(C(C)(C)C)[N+](C)=C2[B-](C(C)(C)C)=[N+](C(C)(C)C)[B-]21C(C)(C)C` (stereo unspecified) returned a TGI of over 100 µM.
On the same count and under the same terms, to `Brc1ccc(CCNCCN2CCCCC2)cc1` belongs 30.3 µM; to `Cc1ccc(C(=O)Nc2ccc(CP(=O)(O)O)cc2CP(=O)(O)O)cc1NC(=O)c1cccc(N)c1`, over 100 µM.
On the same count and under the same terms, the figure for `OC1C2[C@@H](O)CCCN2C[C@@H](O)[C@H]1O` (stereo partly specified) is over 100 µM; for `COCOC1/C=C/CCCC#C[C@H](C)C(=O)CC1` (stereo partly specified) it is 18.1 µM.
The compound `CN(C)/N=N/c1nc2c(c(=O)n(C)c(=O)n2C)n1C` returned a TGI of over 100 µM.
As for `COc1ccc2[nH]c(O)c(/C=c3/cc4c(c(-c5cc(OC)c(OC)c(OC)c5)n3)=Nc3ccccc3-4)c2c1`, the GI50 was 5.03 µM and the TGI is over 100 µM.
With `NCC1CCN(c2nc3ccccc3c3c2CCCC3)CC1`, the TGI came out at 19.8 µM.
Same read-out and setting: the figure for `CCN(CC)CCc1c2c(nc3ccccc13)C(=O)c1cccnc1C2=O` is 6.46 µM; for `Nc1cc(CO)cc(Nc2nc3ccc(Cl)cc3c3[nH]c4ccccc4c23)c1` it is 12.7 µM; for `Cc1c(F)c(N)c2c(=O)cc(-c3ccc(NC(=O)CN(C)C)c(F)c3)oc2c1F` it is over 100 µM.
With `COc1ccccc1Nc1nc(N)nc(N)c1N=O`, the TGI is over 100 µM.
Same read-out and setting: the figure for `COc1cccc2c(N)c3cccc(C(=O)NCCN(C)C)c3nc12` is 0.149 µM.
Compound `CCN1CC2=C(NC(=S)NC2c2ccc(Cl)cc2)/C(=C/c2ccc(Cl)cc2)C1` (stereo unspecified) displayed a TGI of over 100 µM.
Still for that read-out and setting: to `O=C(/C=C/c1ccc(O)c([N+](=O)[O-])c1)CC(=O)/C=C/c1ccc(O)c([N+](=O)[O-])c1` belongs over 100 µM.
On the same count and under the same terms, the figure for `OCC1CCCCCCCCCCC12SCCCS2` (stereo unspecified) is over 100 µM; for `C=C(C)C12CC(COC(=O)c3ccccc3)C34OC5(OC1C3C1OC1(CO)C(O)C1(O)C(OC(=O)c3ccccc3)C(C)C(C(C)CCCCCCC5O)C14)O2` (stereo unspecified) it is over 100 µM; for `O=C(O)c1cc2c(cc1CC(Cc1ccc3c(c1)CCC3)C(=O)O)CCC2` (stereo unspecified) it is over 100 µM.
The same measure, in the same setting: the figure for `CC(C)=CCOC(=O)C(C)=[N+]=[N-]` is over 100 µM; for `O=C1C(Cl)=C(N2CCN(C3=C(Cl)C(=O)c4ccccc4C3=O)CC2)C(=O)c2ccccc21` it is 1.83 µM; for `Cc1c(-c2nc3ccccc3[nH]2)c(=O)n(-c2ccccc2)n1C` it is over 100 µM.

The subject of another assay is OVCAR-5 ovarian. Nature of the assay: NCI tumour cell line growth inhibition, 48 h.
Compound `COc1ccc(C2CC(c3c(O)ccc4ccccc34)=NN2c2ccc([N+](=O)[O-])cc2[N+](=O)[O-])cc1OC` (stereo unspecified) gave a TGI of over 90.6 µM.
On the same count and under the same terms, the figure for `S=C(N/N=C\C=N/NC(=S)N1CCCCC1)N1CCCCC1` is over 100 µM.
Still for that read-out and setting: to `CN1C(=O)C2C(=O)N(Cc3ccccc3)CC(=O)N2c2cccnc21` (stereo unspecified) belongs over 100 µM; to `C=C1CC(COc2cc(=O)oc3ccccc23)(c2ccccc2)OC1=O` (stereo unspecified), 21.4 µM; to `CN(C)CCCOc1nc2c(c(=O)n(C)c(=O)n2C)n1C` (tested in a mixture with another compound), over 100 µM.
The compound `C[N+]1=C2[B-](C(C)(C)C)=[N+](C(C)(C)C)[B-]2(C(C)(C)C)[N+](C)=C2[B-](C(C)(C)C)=[N+](C(C)(C)C)[B-]21C(C)(C)C` (stereo unspecified) had a TGI of over 100 µM.
Still for that read-out and setting: to `Brc1ccc(CCNCCN2CCCCC2)cc1` belongs 36.2 µM; to `Cc1ccc(C(=O)Nc2ccc(CP(=O)(O)O)cc2CP(=O)(O)O)cc1NC(=O)c1cccc(N)c1`, over 100 µM; to `OC1C2[C@@H](O)CCCN2C[C@@H](O)[C@H]1O` (stereo partly specified), over 100 µM.
With `COCOC1/C=C/CCCC#C[C@H](C)C(=O)CC1` (stereo partly specified), the TGI came to 20.1 µM.
On to `CN(C)/N=N/c1nc2c(c(=O)n(C)c(=O)n2C)n1C`, for which the TGI is over 100 µM.
Consider `COc1ccc2[nH]c(O)c(/C=c3/cc4c(c(-c5cc(OC)c(OC)c(OC)c5)n3)=Nc3ccccc3-4)c2c1`, for which the GI50 is over 100 µM and the TGI was over 100 µM.
`NCC1CCN(c2nc3ccccc3c3c2CCCC3)CC1` had a TGI of 24.7 µM.
On the same count and under the same terms, the figure for `CCN(CC)CCc1c2c(nc3ccccc13)C(=O)c1cccnc1C2=O` is 25.4 µM; for `Nc1cc(CO)cc(Nc2nc3ccc(Cl)cc3c3[nH]c4ccccc4c23)c1` it is 17.6 µM; for `Cc1c(F)c(N)c2c(=O)cc(-c3ccc(NC(=O)CN(C)C)c(F)c3)oc2c1F` it is over 100 µM.
Still for that read-out and setting: to `COc1ccccc1Nc1nc(N)nc(N)c1N=O` belongs over 100 µM; to `COc1cccc2c(N)c3cccc(C(=O)NCCN(C)C)c3nc12`, 3.4 µM.
Same read-out and setting: the figure for `CCN1CC2=C(NC(=S)NC2c2ccc(Cl)cc2)/C(=C/c2ccc(Cl)cc2)C1` (stereo unspecified) is over 100 µM.
The compound `O=C(/C=C/c1ccc(O)c([N+](=O)[O-])c1)CC(=O)/C=C/c1ccc(O)c([N+](=O)[O-])c1` displayed a TGI of over 100 µM.
Same read-out and setting: the figure for `OCC1CCCCCCCCCCC12SCCCS2` (stereo unspecified) is over 100 µM; for `C=C(C)C12CC(COC(=O)c3ccccc3)C34OC5(OC1C3C1OC1(CO)C(O)C1(O)C(OC(=O)c3ccccc3)C(C)C(C(C)CCCCCCC5O)C14)O2` (stereo unspecified) it is over 100 µM.
Compound `O=C(O)c1cc2c(cc1CC(Cc1ccc3c(c1)CCC3)C(=O)O)CCC2` (stereo unspecified) showed a TGI of over 100 µM.
The same measure, in the same setting: the figure for `CC(C)=CCOC(=O)C(C)=[N+]=[N-]` is over 100 µM; for `O=C1C(Cl)=C(N2CCN(C3=C(Cl)C(=O)c4ccccc4C3=O)CC2)C(=O)c2ccccc21` it is 12.7 µM.
